Source: ChEMBL document CHEMBL1177837, “5-Isopropylidene-3-ethyl rhodanine induce growth inhibition followed by apoptosis in leukemia cells” (Eur J Med Chem, 2010)
The source made the active and inactive calls.

Experiments:
Type in all cases: functional, cell-based
[1] = tested on: CCRF-CEM; assay: Cytotoxicity against human CEM cells assessed as LDH release after at 10 to 250 uM; conditions: TDE = time-dependent effect
[2] = tested on: CCRF-CEM; assay: Cell cycle arrest in human CEM cells assessed as accumulation at G1 phase after 72 hrs by FACS
[3] = tested on: CCRF-CEM; assay: Cell cycle arrest in human CEM cells assessed as accumulation at G2 phase after 72 hrs by FACS
[4] = tested on: CCRF-CEM; assay: Cell cycle arrest in human CEM cells assessed as accumulation at S phase after 72 hrs by FACS
[5] = tested on: CCRF-CEM; assay: Cytotoxicity against human CEM cells at 50 uM after 48 hrs by trypan blue exclusion assay
[6] = tested on: CCRF-CEM; assay: Cell cycle arrest in human CEM cells assessed as accumulation at G2/M phase after 72 hrs by FACS
[7] = tested on: CCRF-CEM; assay: Cytotoxicity against human CEM cells at 100 uM after 48 hrs by trypan blue exclusion assay
[8] = tested on: CCRF-CEM; assay: Cytotoxicity against human CEM cells at 250 uM after 48 hrs by trypan blue exclusion assay
[9] = tested on: CCRF-CEM; assay: Cell cycle arrest in human CEM cells assessed as accumulation at sub G1 phase after 72 hrs by FACS

Measured: Activity

CCN1C(=O)C(=C(C)C)SC1=S
active: [1] tde | [2] Dose-dependent effect | [3] Dose-dependent effect | [4] Dose-dependent effect | [5] | [6] Dose-dependent effect | [7] | [8] | [9] Dose-dependent effect
